Assays:
[1] = target: T1, Adenosylhomocysteinase (Rattus norvegicus, UniProt P10760); assay: Inhibitory activity against recombinant rat liver S-adenosyl-homocysteine hydrolase
T1 sequence (P10760 whole entry): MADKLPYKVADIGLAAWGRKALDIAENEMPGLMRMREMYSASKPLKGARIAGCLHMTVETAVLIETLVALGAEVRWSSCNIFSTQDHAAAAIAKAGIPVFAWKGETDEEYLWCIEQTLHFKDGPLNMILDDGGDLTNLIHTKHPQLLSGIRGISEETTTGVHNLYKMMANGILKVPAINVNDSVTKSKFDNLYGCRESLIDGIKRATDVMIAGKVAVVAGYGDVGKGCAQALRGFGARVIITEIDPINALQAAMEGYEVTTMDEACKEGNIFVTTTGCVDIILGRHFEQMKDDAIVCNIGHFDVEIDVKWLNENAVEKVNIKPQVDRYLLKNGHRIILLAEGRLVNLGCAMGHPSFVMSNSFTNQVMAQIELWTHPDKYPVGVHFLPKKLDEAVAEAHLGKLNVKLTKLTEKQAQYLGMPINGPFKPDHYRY

[2] = target: T2, Adenosylhomocysteinase (Rattus norvegicus) (UniProt P10760)
T2 sequence (whole entry): T1 sequence (P10760 whole entry)
Description: Rate constant for recombinant rat liver S-adenosyl-homocysteine hydrolase inactivation

| Ki [1] [nM] | k2 [2] [min⁻¹] | Compound |
| --- | --- | --- |
| 39 | 0.65 | Nc1ncnc2c1ncn2[C@@H]1O[C@@H](C=O)[C@@H](O)[C@H]1O |
| 43 | 0.22 | Nc1ncnc2c1ncn2[C@@H]1O[C@H](C=O)[C@@H](O)[C@H]1O |
| 40 | 0.05 | Nc1ncnc2c1ncn2[C@@H]1O/C(=C/F)[C@H](O)[C@@H]1O |
| 39 | 0.082 | Nc1ncnc2c1ncn2[C@@H]1O/C(=C\F)[C@H](O)[C@@H]1O |

Source: ChEMBL document CHEMBL1126630, “Adenosine-5'-carboxaldehyde: a potent inhibitor of S-adenosyl-L-homocysteine hydrolase” (J Med Chem, 1993)
